Data from patent US6713477B1, “Hydroxamic acid derivatives” (Sumitomo Pharmaceuticals Company, Limited, priority 2000, dated 2004).
pIC50: −log10 of the molar value.

Tests used:
MMP-9 = molecular target: T1, MMP-9 (Homo sapiens, UniProt P14780); assay: Inhibition assay against MMP-9 (fluorescent MCA-labeled substrate); format: biochemical; conditions: active MMP at 20 nM, 37° C., 1.5 hours
T1 construct: Both enzymes were commercially available as active forms (Yagai-Cosmobio); purchased Yagai-Cosmobio
T1 sequence (P14780 107-707 limits assumed, species assumed): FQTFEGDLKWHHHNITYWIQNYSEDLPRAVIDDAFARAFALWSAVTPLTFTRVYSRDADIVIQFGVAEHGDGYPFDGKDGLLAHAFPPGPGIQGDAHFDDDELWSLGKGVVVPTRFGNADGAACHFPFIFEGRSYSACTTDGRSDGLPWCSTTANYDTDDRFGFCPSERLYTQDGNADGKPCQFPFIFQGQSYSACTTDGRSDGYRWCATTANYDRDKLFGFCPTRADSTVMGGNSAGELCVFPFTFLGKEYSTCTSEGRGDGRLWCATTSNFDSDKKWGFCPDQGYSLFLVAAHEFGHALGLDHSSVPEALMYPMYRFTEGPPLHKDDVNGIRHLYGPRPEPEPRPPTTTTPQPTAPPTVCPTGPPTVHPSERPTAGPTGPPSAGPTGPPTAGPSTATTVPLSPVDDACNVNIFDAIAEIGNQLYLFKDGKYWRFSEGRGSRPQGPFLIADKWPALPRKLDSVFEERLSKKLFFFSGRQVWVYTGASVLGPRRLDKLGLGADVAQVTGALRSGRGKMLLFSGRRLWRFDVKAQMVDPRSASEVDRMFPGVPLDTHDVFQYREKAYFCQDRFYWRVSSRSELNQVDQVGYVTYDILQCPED
Description: (§1) Both enzymes were commercially available as active forms (Yagai-Cosmobio) and were used for inhibition assays.
(§2) Enzymatic assays were performed in accordance with C. G. Knight's method (FEBS Lett., 296(3), 263-266 (1992)). The fluorescent MCA-labeled substrate, (7-methoxycumaline-4-yl)-Pro-Leu-Gly-Leu-L-[N-(2,4-dinitrophenyl)-L-2,3-diaminopropionyl]-Ala-Arg-NH2 (Peptide Institute. Inc.) was used for measuring the kinetics of inhibition for each tested compound.
(§3) The substrate was incubated at 37° C. for 1.5 hours (MMP-1; for 24 hours) with active MMP (at 20 nM, except MMP-13 at 5 nM) and a test compound in assay buffer containing 100 mM Tris-HCl (pH7.5), 10 mM CaCl2, 100 MM NaCl and 0.05% Brij-35.

MMP-2 = molecular target: T2, MMP-2 (Homo sapiens, UniProt P08253); assay: Inhibition assay against MMP-2 (fluorescent MCA-labeled substrate); format: biochemical; conditions: active MMP at 20 nM, 37° C., 1.5 hours
T2 construct: Both enzymes were commercially available as active forms (Yagai-Cosmobio); purchased Yagai-Cosmobio
T2 sequence (P08253 110-660): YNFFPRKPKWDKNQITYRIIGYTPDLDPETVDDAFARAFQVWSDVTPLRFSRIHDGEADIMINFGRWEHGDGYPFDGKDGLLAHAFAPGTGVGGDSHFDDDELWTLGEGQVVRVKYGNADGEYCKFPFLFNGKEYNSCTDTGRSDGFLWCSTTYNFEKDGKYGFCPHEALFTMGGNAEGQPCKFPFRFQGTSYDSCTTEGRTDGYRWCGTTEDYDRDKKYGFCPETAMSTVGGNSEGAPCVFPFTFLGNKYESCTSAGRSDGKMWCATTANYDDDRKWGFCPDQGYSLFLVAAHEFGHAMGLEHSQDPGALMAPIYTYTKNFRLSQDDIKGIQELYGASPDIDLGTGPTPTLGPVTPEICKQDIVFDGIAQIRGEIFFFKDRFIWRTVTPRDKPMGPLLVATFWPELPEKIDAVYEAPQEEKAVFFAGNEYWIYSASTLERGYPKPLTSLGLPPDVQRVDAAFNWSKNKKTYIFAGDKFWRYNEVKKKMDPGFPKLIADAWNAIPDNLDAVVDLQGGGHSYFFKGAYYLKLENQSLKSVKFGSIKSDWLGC
Description: as §1, §2, §3

[1] = test system: TNF-α release from RAW 267.4; assay: Inhibition ELISA for Tumor Necrosis Factor-α (TNF-α) release, LPS-stimulated RAW 267.4 cells; format: cell-based; conditions: Mus musculus, RAW267.4, LPS-stimulated RAW 267.4, 24 hours, read-out: Inhibition of TNF production at 5 μM
Description: RAW 267.4 (derived from mouse monocytes) was seeded in RPMI1640 containing 10% of FBS (GIBCO BRL) at 100 μL/well (5×10^5 cells/mL) onto 96-well microplates and cultured at 37° C., 5% CO2. After culturing for 4 hours, each test compound diluted in RPMI1640 was added at 50 μL/well. 15 minutes later, […] LPS (DIFCO) diluted in RPMI1640 was added at 50 μL/well and cultured for 24 hours.
TNF-α produced was measured by ELISA as usual. (For example; J. Cellular Physiol. 154, 479 (1993)) Absorbance at 450 nm (normalized at 620 nm) was measured and percentage of the amount of TNF-α release for each tested compound (n=2) was determined (0% for untreated control (n=4), and 100% for LPS stimulation (n=4)).

[2] = molecular target: T3, MMP-13 (Matrix Metalloproteinase-13, Collagenase-3) (Homo sapiens, UniProt P45452); assay: Inhibition assay against MMP-13 (fluorescent MCA-labeled substrate); format: biochemical; conditions: Table 10; active MMP-13 at 5 nM, 37° C., 1.5 hours; read-out: IC50 MMP13
T3 construct: made in house; host or cells: E. coli BL21 (DE3), pET11a
Source text: To subclone C-terminal truncated form of procollagenase-3 (proMMP-13) cDNA (J.Biol.Chem., 269(24), 16766-16773 (1994)), two synthetic oligonucleotide primer (5′-[…]-3′ and 5′-[…]-3′: the former incorporates sequences for a unique NdeI site (underlined) including initial methionine, and the latter has sequences for a stop codon and BamHI site (underlined)) were used with human chondrocyte cDNA library (CLONTECH) in PCR. With these primers and Pfu DNA polymerase (STRATAGENE) in PCR, 767 bp fragment was generated, which encodes 84 amino acid prosequence and 164 amino acids of mature MMP-13. The fragment was digested with NdaI and BamHI, ligated into the NdeI and BamHI sites of pET11a (STRATAGENE), transformed in E.coli BL21 (DE3) and cultured. The crude cell extract was prepared as described in Biochemistry. The extract was dialyzed against 20 mM Tris-HCl(pH7.2)/5 mM CaCl2/0.02% NaN3 and applied to a SP-Sepharose HP column (1.6×10 cm, Amersham-Pharmacia Biotech), and elution was performed with 50 mL linear gradient of 0 to 0.3 M NaCl (partially purified proMMP-13 was eluted at 0.2 M approximately). The fraction was dialyzed against 20 mM Tris-HCl(pH7.9)/5 mM CaCl2,/200 mM (NH4)2SO4/0.02% NaN3 and applied to a Phenyl Sepharose HP column (1.6×5 cm, Amersham-Pharmacia Biotech), and elution was performed with 20 mL linear gradient of 0.2 to 0 M (NH4)2SO4 (pure proHMP-13 was eluted at 50 mM approximately). The fraction was concentrated by YM-5 ultrafiltration membrane and activated with 4-aminophenylmercuric acetate and active MMP-13 was separated from propeptide fragments by gel filtration chromatography as described in Biochemistry.
as §2, §3

[3] = molecular target: T4, MMP-3 (Matrix Metalloproteinase-3, Stromelysin-1) (Homo sapiens, UniProt P08254); assay: Inhibition assay against MMP-3 (fluorescent MCA-labeled substrate); format: biochemical; conditions: Table 10; active MMP at 20 nM, 37° C., 1.5 hours; read-out: IC50 MMP3
T4 construct: C-terminal truncated form of human prostromelysin cDNA; made in house; host or cells: E. coli
T4 sequence (P08254 100-272 limits assumed): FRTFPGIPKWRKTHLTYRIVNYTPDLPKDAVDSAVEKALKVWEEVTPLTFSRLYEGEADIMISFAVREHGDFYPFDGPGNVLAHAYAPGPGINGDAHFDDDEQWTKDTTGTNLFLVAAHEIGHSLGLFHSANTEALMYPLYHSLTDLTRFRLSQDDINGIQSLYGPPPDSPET
Description: C-terminal truncated form of human prostromelysin cDNA (proMMP-3, cDNA sequence in Nature, 348, 699-704 (1990)) was subcloned, expressed in E.coli and purified as described previously (Biochemistry 30, 6476-6483 (1991)). Activation of proMMP-3 was achieved by treatment with 1 mM 4-aminophenylmercuric acetate at 37° C. for 60 min.
as §2, §3

Row | pIC50 (MMP-9) | pIC50 (MMP-2) | pIC50 [2] | pIC50 [3] | Compound | inhibition at 5 µM [1] [%]
1 | < 6.00 |  |  |  | COc1ccc(C2SCC(=O)N2[C@@H](CC(C)C)C(=O)NO)cc1 (stereo partly drawn) [Example 21, 3-[(1S)-(N-Hydroxyaminocarbonyl)-3-methylbutyl]-2-(4-methoxyphenyl)-1,3-thiazolidine-4-one] | 
2 | 6.96 | 6.49 |  |  | COc1ccc(/C=C2\Sc3ccccc3N(CC(=O)NO)C2=O)cc1 [Example 365, 2H-2(Z)-(4-Methoxybenzylidene)-1,4-benzothiazin-3(4H)-one-4-yl-acetic Acid N-Hydroxylamide] | 20
3 | > 8.00 | 6.52 | 7.44 | 5.82 | O=C(CN1C(=O)/C(=C/c2ccc(Oc3ccccc3)cc2)Sc2ccccc21)NO [Example 368] | 30
4 | 6.70 | < 6.00 |  |  | CCCCOc1ccc(C=C2Sc3ccccc3N(CC(=O)NO)C2=O)cc1 [Example 369] | 
